Assay [1] addresses T1, 5-LOX (Homo sapiens, UniProt P09917).
T1 sequence (P09917 1-674): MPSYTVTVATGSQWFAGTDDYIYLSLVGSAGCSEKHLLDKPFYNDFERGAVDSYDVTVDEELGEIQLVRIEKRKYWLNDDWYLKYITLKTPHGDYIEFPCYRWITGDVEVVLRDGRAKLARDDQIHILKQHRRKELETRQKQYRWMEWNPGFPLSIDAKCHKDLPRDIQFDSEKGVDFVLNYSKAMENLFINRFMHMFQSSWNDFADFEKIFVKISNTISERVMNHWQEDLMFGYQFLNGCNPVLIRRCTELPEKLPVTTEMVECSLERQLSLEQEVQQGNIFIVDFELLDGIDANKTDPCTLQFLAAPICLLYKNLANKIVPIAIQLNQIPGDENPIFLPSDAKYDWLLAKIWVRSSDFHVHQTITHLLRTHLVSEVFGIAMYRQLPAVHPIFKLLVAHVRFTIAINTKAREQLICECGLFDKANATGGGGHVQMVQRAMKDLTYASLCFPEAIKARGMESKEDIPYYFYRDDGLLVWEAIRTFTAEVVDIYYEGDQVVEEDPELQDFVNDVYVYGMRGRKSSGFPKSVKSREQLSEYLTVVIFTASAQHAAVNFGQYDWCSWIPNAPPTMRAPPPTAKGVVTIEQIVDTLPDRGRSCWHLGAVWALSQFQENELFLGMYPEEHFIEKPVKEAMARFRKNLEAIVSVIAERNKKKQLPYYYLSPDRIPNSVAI
As to the kind of experiment: 5-LOX product formation in activated PMNL.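 On all read-outs here: freshly isolated human PMNL in PBS pH 7.4 plus glucose, preincubated 10 min at 37 °C with compound, 5-LOX products (all-trans LTB4 isomers, 5-HETE) quantified by RP-HPLC.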 The settings on record: for remaining activity at 3 µM / remaining activity at 1 µM: PMNL; for remaining activity at 3 µM: read-out: 5-LOX PMNL residual activity at 3 μM; for IC50: read-out: 5-LOX PMNL IC50, 5-LOX product formation in activated PMNL, mean ± SEM; for remaining activity at 1 µM: read-out: 5-LOX PMNL residual activity at 1 μM (cells marked b).
Description: These volunteers regularly donated blood (every 8–12 weeks) and were physically inspected by a clinician.
Erythrocytes were removed by dextran sedimentation and hypotonic lysis. PMNL were obtained from the cell pellet and platelets from the supernatant.
Freshly isolated PMNL (5 × 10^6) suspended in PBS pH 7.4 with 1 mg/mL glucose or freshly withdrawn human whole blood were preincubated with the test compounds for 10 min (or as indicated) at 37 °C. […] The reaction was stopped with an equal volume of methanol.

The target in assay [2] is T1, 5-LOX. As to the kind of experiment: Cell-free 5-LOX activity (isolated human recombinant enzyme). The settings on record: for IC50: read-out: 5-LOX enzyme IC50, isolated human 5-LOX, cell-free, mean ± SEM; for remaining activity at 1 µM: read-out: 5-LOX enzyme residual activity at 1 μM.

On to `C/C(=C\CC/C(C)=C/CC[C@]1(C)CCc2c(CN(C)C)c(O)c(CN(C)C)c(C)c2O1)CC/C=C(\C)C(=O)O` [Compound 24], for which, at 5-LOX [1], the remaining activity at 3 µM was found to be 82.1 ± 24.1% and the IC50 was > 3 µM. For the same compound, at 5-LOX [2], the IC50 is > 1 µM and the remaining activity at 1 µM was found to be 95.2 ± 7.9%.

As to `COC(=O)/C(C)=C/CC/C(C)=C/CC/C(C)=C/CC[C@]1(C)CCc2c(c(C)cc(O)c2C(=O)OC)O1` [Compound 25, (R)-Methyl-6-hydroxy-2-((3E,7E,11E)-13-methoxy-4,8,12-trimethyl-13-oxotrideca-3,7,11-trien-1-yl)-2,8-dimethylchroman-5-carboxylate], at 5-LOX [1], the remaining activity at 3 µM worked out at 79.9 ± 3.6% and the IC50 was > 3 µM. Moreover, at 5-LOX [2], the IC50 was > 1 µM and the remaining activity at 1 µM was 54.5 ± 8.4%.

On to `Cc1cc(O)cc2c1O[C@](C)(CCCC(C)CCCC(C)CCCC(CO)CO)CC2` (stereo partly drawn) [Compound 26, 2-(11-((R)-6-Hydroxy-2,8-dimethylchroman-2-yl)-4,8-dimethylundecyl)propane-1,3-diol], for which, at 5-LOX [1], the remaining activity at 3 µM turned out to be 81.3 ± 0.7% and the IC50 is > 3 µM. On 5-LOX [2], the IC50 was > 1 µM and the remaining activity at 1 µM amounted to 53.1 ± 7.4%.

Regarding `C/C(=C\CC/C(C)=C/CC[C@]1(C)CCc2c(C)c(O)cc(C)c2O1)CCC=C(CO)CO` [Compound 27b], on 5-LOX [1], the remaining activity at 3 µM came to 0.9 ± 0.5% and the IC50 worked out at 0.1 ± 0.02 µM. In addition, at 5-LOX [2], the IC50 was 0.09 ± 0.02 µM and the remaining activity at 1 µM was found to be 0%.

Consider `C/C(=C\CC/C(C)=C/CC[C@]1(C)CCc2cc(O)c(C)c(C)c2O1)CCC=C(CO)CO` [Compound 27c], for which, on 5-LOX [1], the remaining activity at 3 µM was 0.8 ± 0.2% and the IC50 is 0.05 ± 0.04 µM. The remaining activity at 1 µM on 5-LOX [2] came out at 0.1 ± 0.1%.

Regarding `C/C(=C\CC/C(C)=C/CC[C@]1(C)CCc2cc(O)cc(C)c2O1)CCC=C(CO)CO` [Compound 27d, δ-amplexichromanol], at 5-LOX [1], the remaining activity at 1 µM was determined as 14.7 ± 1.6% and the IC50 worked out at 0.43 ± 0.04 µM. In addition, the remaining activity at 1 µM on 5-LOX [2] was 1.8 ± 0.9%.

Turning to `C/C(=C\CC[C@]1(C)CCc2cc(O)cc(C)c2O1)CCC=C(CO)CO` [Compound 28, (R,E)-2-(7-(6-Hydroxy-2,8-dimethylchroman-2-yl)-4-methylhept-4-en-1-ylidene)propane-1,3-diol], at 5-LOX [1], the remaining activity at 3 µM turned out to be 36.3 ± 6.5% and the IC50 worked out at 2.3 ± 0.26 µM. At 5-LOX [2], the IC50 worked out at 0.17 ± 0.03 µM and the remaining activity at 1 µM was determined as 15 ± 2.4%.

Consider `Cc1cc(O)cc2c1O[C@](C)(CCC=C(CO)CO)CC2` [Compound 29, (R)-2-(3-(6-Hydroxy-2,8-dimethylchroman-2-yl)propylidene)propane-1,3-diol], for which, on 5-LOX [1], the remaining activity at 3 µM was 86.4 ± 0.8% and the IC50 is > 3 µM. Also, at 5-LOX [2], the IC50 is > 1 µM and the remaining activity at 1 µM stood at 79.7 ± 3.5%.

As for `C/C(=C\CC/C(C)=C/CC[C@]1(C)CCc2cc(OC(=O)CCC(=O)O)cc(C)c2O1)CCC=C(CO)CO` [Compound 31, 4-(((R)-2-((3E,7E)-13-Hydroxy-12-(hydroxymethyl)-4,8-dimethyltrideca-3,7,11-trien-1-yl)-2,8-dimethylchroman-6-yl)oxy)-4-oxobutanoic Acid], on 5-LOX [1], the remaining activity at 1 µM worked out at 26.4 ± 6.7% and the IC50 came to 0.45 ± 0.1 µM. Further, on 5-LOX [2], the IC50 was determined as 0.09 ± 0.03 µM and the remaining activity at 1 µM was 1.1 ± 0.6%.

In the case of `C/C(=C\CC/C(C)=C/CC[C@]1(C)CCc2c(C)c(O)c(C=O)c(C)c2O1)CCC=C(CO)CO` [Compound 33], at 5-LOX [1], the remaining activity at 3 µM is 7.5 ± 2.2% and the IC50 was 1.38 ± 0.28 µM. At 5-LOX [2], the IC50 is 0.17 ± 0.05 µM and the remaining activity at 1 µM was 8.9 ± 3.5%.

Turning to `C/C(=C\CC/C(C)=C/CC[C@]1(C)CCc2c(C=O)c(O)cc(C)c2O1)CCC=C(CO)CO` [Compound 34], at 5-LOX [1], the remaining activity at 3 µM turned out to be 6.1 ± 0.1% and the IC50 was determined as 1.81 ± 0.32 µM. In addition, at 5-LOX [2], the IC50 is 0.17 ± 0.06 µM and the remaining activity at 1 µM is 13.8 ± 4.4%.

Take `C/C(=C\CC/C(C)=C/CC[C@]1(C)CCc2c(CN3CCCC3)c(O)cc(C)c2O1)CCC=C(CO)CO` [Compound 35, 2-((4E,8E)-11-((R)-6-Hydroxy-2,8-dimethyl-5-(pyrrolidin-1-ylmethyl)chroman-2-yl)-4,8-dimethylundeca-4,8-dien-1-ylidene)propane-1,3-diol]: at 5-LOX [1], the remaining activity at 3 µM was determined as 17.4 ± 2.4% and the IC50 stood at 1.9 ± 0.11 µM. Moreover, at 5-LOX [2], the IC50 stood at 0.17 ± 0.03 µM and the remaining activity at 1 µM worked out at 4.1 ± 0.2%.

As to `C/C(=C\CC/C(C)=C/CC[C@]1(C)CCc2c(CN(C)C)c(O)cc(C)c2O1)CCC=C(CO)CO` [Compound 36, 2-((4E,8E)-11-((R)-5-((Dimethylamino)methyl)-6-hydroxy-2,8-dimethylchroman-2-yl)-4,8-dimethylundeca-4,8-dien-1-ylidene)propane-1,3-diol], on 5-LOX [1], the remaining activity at 3 µM was found to be 63.9 ± 14.4% and the IC50 is > 3 µM. At 5-LOX [2], the IC50 turned out to be 0.11 ± 0.02 µM and the remaining activity at 1 µM came out at 3.7 ± 0.4%.

Turning to `C/C(=C\CC/C(C)=C/CC[C@]1(C)CCc2c(CN3CCOCC3)c(O)cc(C)c2O1)CCC=C(CO)CO` [Compound 37, 2-((4E,8E)-11-((R)-6-Hydroxy-2,8-dimethyl-5-(morpholinomethyl)chroman-2-yl)-4,8-dimethylundeca-4,8-dien-1-ylidene)propane-1,3-diol], on 5-LOX [1], the remaining activity at 3 µM was found to be 11.3 ± 3.3% and the IC50 was 1.74 ± 0.09 µM. For the same compound, on 5-LOX [2], the IC50 was determined as 0.12 ± 0.03 µM and the remaining activity at 1 µM stood at 3.9 ± 0.6%.

For the compound `C/C(=C\CC/C(C)=C/CC[C@]1(C)CCc2c(CN3CCCCC3)c(O)cc(C)c2O1)CCC=C(CO)CO` [Compound 38, 2-((4E,8E)-11-((R)-6-Hydroxy-2,8-dimethyl-5-(piperidin-1-ylmethyl)chroman-2-yl)-4,8-dimethylundeca-4,8-dien-1-ylidene)propane-1,3-diol], at 5-LOX [1], the remaining activity at 3 µM was 11.7 ± 1.8% and the IC50 is 1.95 ± 0.07 µM. On 5-LOX [2], the IC50 was 0.11 ± 0.02 µM and the remaining activity at 1 µM was 5.1 ± 0.9%.

Turning to `C/C(=C\CC/C(C)=C/CC[C@]1(C)CCc2c(CN3CCN(C)CC3)c(O)cc(C)c2O1)CCC=C(CO)CO` [Compound 39, 2-((4E,8E)-11-((R)-6-Hydroxy-2,8-dimethyl-5-((4-methylpiperazin-1-yl)methyl)chroman-2-yl)-4,8-dimethylundeca-4,8-dien-1-ylidene)propane-1,3-diol], at 5-LOX [1], the remaining activity at 3 µM is 21.6 ± 6.8% and the IC50 came to 2.03 ± 0.16 µM. On 5-LOX [2], the concentration for half-maximal inhibition (IC50) is 0.31 ± 0.07 µM and the remaining activity at 1 µM was 16 ± 1.9%.

On to `C/C(=C\CC/C(C)=C/CC[C@]1(C)CCc2c(CN3CCN(C)CC3)c(O)c(CN3CCN(C)CC3)c(C)c2O1)CCC=C(CO)CO` [Compound 40, 2-((4E,8E)-11-((R)-6-Hydroxy-2,8-dimethyl-5,7-bis((4-methylpiperazin-1-yl)methyl)chroman-2-yl)-4,8-dimethylundeca-4,8-dien-1-ylidene)propane-1,3-diol], for which, on 5-LOX [1], the remaining activity at 3 µM was determined as 77.8 ± 7.6% and the IC50 is > 3 µM. Besides, at 5-LOX [2], the IC50 is > 1 µM and the remaining activity at 1 µM was 50.3 ± 4.1%.

On to `CC(=O)c1cc2c(C)c3c(c(C)c2oc1=O)CC[C@@](C)(CC/C=C(\C)CC/C=C(\C)CCC=C(CO)CO)O3` [Compound 41, (R)-3-Acetyl-7-((3E,7E)-13-hydroxy-12-(hydroxymethyl)-4,8-dimethyltrideca-3,7,11-trien-1-yl)-5,7,10-trimethyl-8,9-dihydropyrano[2,3-g]chromen-2(7H)-one], for which, on 5-LOX [1], the remaining activity at 3 µM worked out at 12.4 ± 0.7% and the IC50 amounted to 1.25 ± 0.2 µM. At 5-LOX [2], the IC50 turned out to be 0.63 ± 0.13 µM and the remaining activity at 1 µM is 35.1 ± 5.7%.

For the compound `CC(=O)c1cc2c3c(c(C)cc2oc1=O)O[C@](C)(CC/C=C(\C)CC/C=C(\C)CCC=C(CO)CO)CC3` [Compound 42, (R)-2-Acetyl-8-((3E,7E)-13-hydroxy-12-(hydroxymethyl)-4,8-dimethyltrideca-3,7,11-trien-1-yl)-6,8-dimethyl-9,10-dihydropyrano[3,2-f]chromen-3(8H)-one], on 5-LOX [1], the remaining activity at 3 µM came to 15.3 ± 6.9% and the IC50 turned out to be 1.44 ± 0.42 µM. Also, at 5-LOX [2], the IC50 came to 0.21 ± 0.02 µM and the remaining activity at 1 µM was determined as 23.3 ± 2.3%.

As for `CCOC(=O)c1cc2c3c(c(C)cc2oc1=O)O[C@](C)(CC/C=C(\C)CC/C=C(\C)CCC=C(CO)CO)CC3` [Compound 43, Ethyl-(R)-8-((3E,7E)-13-hydroxy-12-(hydroxymethyl)-4,8-dimethyltrideca-3,7,11-trien-1-yl)-6,8-dimethyl-3-oxo-3,8,9,10-tetrahydropyrano[3,2-f]chromene-2-carboxylate], on 5-LOX [1], the remaining activity at 3 µM worked out at 8.1 ± 1% and the IC50 was found to be 1.58 ± 0.21 µM. Further, on 5-LOX [2], the IC50 is 0.47 ± 0.14 µM and the remaining activity at 1 µM amounted to 29.3 ± 2.6%.

In general, IC50 refers to the point on the concentration scale where inhibition reaches its midpoint.

(Values after publication PMC8365602 (Journal of Medicinal Chemistry, 2021).)
